Results on 6 compounds are retold here after ChEMBL document CHEMBL6109049, “Fine-tuning probes for fluorescence polarization binding assays of bivalent ligands against polo-like kinase 1 using full-length protein” (Bioorg Med Chem, 2025).

In experiment [1] the target is T1, Serine/threonine-protein kinase PLK1 (Homo sapiens, UniProt P53350). The experiment can be described thus: Displacement of biotin-Ahx-PMQSpTPLN from myc-tagged Plk1 in cytosolic lysates (unknown origin) preincubated for 1 hr followed by biotinylated probe addition and measured after 1 hr by ELISA. It counts as subcellular, Cytosol. In general terms: ELISA stands for enzyme-linked immunosorbent assay.
T1 sequence (P53350 whole entry): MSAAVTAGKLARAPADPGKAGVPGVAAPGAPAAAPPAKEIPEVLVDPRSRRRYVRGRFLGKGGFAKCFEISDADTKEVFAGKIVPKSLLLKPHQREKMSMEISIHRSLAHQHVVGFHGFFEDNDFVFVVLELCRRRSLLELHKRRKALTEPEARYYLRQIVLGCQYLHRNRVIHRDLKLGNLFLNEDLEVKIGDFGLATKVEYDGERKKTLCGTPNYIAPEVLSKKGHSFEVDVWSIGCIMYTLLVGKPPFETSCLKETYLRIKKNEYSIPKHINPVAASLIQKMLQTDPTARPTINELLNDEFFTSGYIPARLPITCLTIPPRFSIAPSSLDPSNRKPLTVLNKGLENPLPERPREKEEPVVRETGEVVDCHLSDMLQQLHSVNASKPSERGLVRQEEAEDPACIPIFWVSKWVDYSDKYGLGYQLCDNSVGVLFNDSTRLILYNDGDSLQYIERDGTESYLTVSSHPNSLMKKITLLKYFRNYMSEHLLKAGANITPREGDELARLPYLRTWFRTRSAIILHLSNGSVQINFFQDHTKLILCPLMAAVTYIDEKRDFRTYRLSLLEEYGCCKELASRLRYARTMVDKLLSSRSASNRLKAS

Experiment [2] concerns the target T1, Serine/threonine-protein kinase PLK1. The experiment can be described thus: Displacement of FITC-miniPEG-FDPPLHSpTA from full length Plk1 (unknown origin) preincubated for 30 mins followed by fluorescent probe addition and measured after 30 mins by fluorescence polarization assay.

Where a SMILES comes first, the peptide text is derived from it. [ ]: non-standard residue; d: D form. The star is where a group is joined. BI2536acyl = CC[C@@H]1C(=O)N(C)c2cnc(Nc3ccc(C(=O)*)cc3OC)nc2N1C1CCCC1; His(π-(CH2)8Ph) = N[C@@H](Cc1cncn1CCCCCCCCc1ccccc1)C(=O)O; pT = C[C@@H](OP(=O)(O)O)[C@H](N)C(=O)O; AEEA = NCCOCCOCC(=O)O

For the compound `CC[C@@H]1C(=O)N(C)c2cnc(Nc3ccc(C(=O)NCCCC[C@H](NC(C)=O)C(=O)NCCOCCOCC(=O)NCCOCCOCC(=O)NCCOCCOCC(=O)NCCOCCOCC(=O)N4CCC[C@H]4C(=O)N[C@@H](CC(C)C)C(=O)N[C@@H](Cc4c[nH]cn4)C(=O)N[C@@H](CO)C(=O)N[C@H](C(N)=O)[C@@H](C)O)cc3OC)nc2N1C1CCCC1` (Ac-K(BI2536acyl)[AEEA][AEEA][AEEA][AEEA]PLHST-NH2), the IC50 result in experiment [1] and in experiment [2] was “Not_active” in each case.
For `CC[C@@H]1C(=O)N(C)c2cnc(Nc3ccc(C(=O)NCCCC[C@H](NC(C)=O)C(=O)NCCOCCOCC(=O)NCCOCCOCC(=O)NCCOCCOCC(=O)NCCOCCOCC(=O)N4CCC[C@H]4C(=O)N[C@@H](CC(C)C)C(=O)N[C@@H](Cc4cncn4CCCCCCCCc4ccccc4)C(=O)N[C@@H](CO)C(=O)N[C@H](C(N)=O)[C@@H](C)O)cc3OC)nc2N1C1CCCC1` (Ac-K(BI2536acyl)[AEEA][AEEA][AEEA][AEEA]PL[His(π-(CH2)8Ph)]ST-NH2), the IC50 entry in experiment [1] and in experiment [2] was “Not_active” throughout.
In the case of `CC[C@@H]1C(=O)N(C)c2cnc(Nc3ccc(C(=O)NCCCC[C@H](NC(C)=O)C(=O)NCCOCCOCC(=O)N[C@@H](Cc4cncn4CCCCCCCCc4ccccc4)C(=O)N[C@@H](CO)C(=O)N[C@H](C(N)=O)[C@@H](C)OP(=O)(O)O)cc3OC)nc2N1C1CCCC1` (Ac-K(BI2536acyl)[AEEA][His(π-(CH2)8Ph)]S[pT]-NH2), the IC50 entry in experiment [1] was “Not_active”.
Turning to `CC[C@@H]1C(=O)N(C)c2cnc(Nc3ccc(C(=O)NCCCC[C@H](NC(=O)COCCOCCNC(=O)COCCOCCNC(=O)COCCOCCNC(=O)COCCOCCNC(=O)[C@@H](NC(=O)[C@H](CO)NC(=O)[C@H](Cc4c[nH]cn4)NC(=O)[C@H](CC(C)C)NC(=O)[C@@H]4CCCN4C(C)=O)[C@@H](C)O)C(N)=O)cc3OC)nc2N1C1CCCC1` (Ac-PLHST[AEEA][AEEA][AEEA][AEEA]K(BI2536acyl)-NH2), the IC50 result in experiment [1] and in experiment [2] was “Not_active” throughout.
As for `CC[C@@H]1C(=O)N(C)c2cnc(Nc3ccc(C(=O)NCCCC[C@H](NC(=O)COCCOCCNC(=O)COCCOCCNC(=O)COCCOCCNC(=O)COCCOCCNC(=O)[C@@H](NC(=O)[C@H](CO)NC(=O)[C@H](Cc4cncn4CCCCCCCCc4ccccc4)NC(=O)[C@H](CC(C)C)NC(=O)[C@@H]4CCCN4C(C)=O)[C@@H](C)O)C(N)=O)cc3OC)nc2N1C1CCCC1` (Ac-PL[His(π-(CH2)8Ph)]ST[AEEA][AEEA][AEEA][AEEA]K(BI2536acyl)-NH2), the IC50 result in experiment [1] and in experiment [2] was “Not_active” throughout.
For `CC[C@@H]1C(=O)N(C)c2cnc(Nc3ccc(C(=O)NCCCC[C@H](NC(=O)COCCOCCNC(=O)[C@@H](NC(=O)[C@H](CO)NC(=O)[C@H](Cc4cncn4CCCCCCCCc4ccccc4)NC(C)=O)[C@@H](C)OP(=O)(O)O)C(N)=O)cc3OC)nc2N1C1CCCC1` (Ac-[His(π-(CH2)8Ph)]S[pT][AEEA]K(BI2536acyl)-NH2), in experiment [1], the IC50 result was “Not_active”.
